Values joined by “and” are separate entries in the source; they are usually repeats but may differ in a detail not shown here. Equal values may be shown once.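 In this assay, cells in 96-well plates receive the compound at five concentrations for 48 hours. Endpoints are linearly interpolated between the surrounding concentrations. GI50: concentration for 50% inhibition of growth.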 Active and inactive are the calls of the source. Cut-off read from the data, not from the text of the source: active = GI50 up to about 1.1 µM and inactive = higher.
Key:
Test in all cases: NCI tumour cell line growth inhibition, 48 h
DMS-273 = test system: DMS-273
HOP-18 = test system: HOP-18
DMS-114 = test system: DMS-114
SNB-78 = test system: SNB-78
XF498 = test system: XF498
M19-MEL = test system: M19-MEL
DLD-1 = test system: DLD-1
KM-20L2 = test system: KM-20L2
RXF 631 = test system: RXF 631

Structure (SMILES)	GI50 (DMS-273)	GI50 (HOP-18)	GI50 (DMS-114)	GI50 (SNB-78)	GI50 (XF498)	GI50 (M19-MEL)	GI50 (DLD-1)	GI50 (KM-20L2)	GI50 (RXF 631)
CCOc1ccc(/N=N/c2c(-c3ccccc3)nn(C(=O)CC(=O)Nc3ccccc3Cl)c2-c2ccccc2)cc1	18.3 µM (inactive)	> 100 µM (inactive)	23 µM (inactive)	51.4 µM (inactive)	28.4 µM (inactive)	54.8 µM (inactive)	45.2 µM (inactive)	56.4 µM (inactive)	
Clc1cccc(C2SCc3nc4ccccc4n32)c1Cl (configuration not stated)	15.9 µM (inactive)	18.1 µM (inactive)	20.7 µM (inactive)	38.1 µM (inactive)	16 µM (inactive)	12.5 µM (inactive)	16.6 µM (inactive)	19.4 µM (inactive)	
COc1c(-c2ccccc2)nc2ccc(Oc3ccccc3)nn12	> 57.1 µM (inactive)	> 45.5 µM (inactive)	> 50.4 µM (inactive)	> 60 µM (inactive)	23.8 µM (inactive)	> 64.3 µM (inactive)	48.3 µM (inactive)	> 75 µM (inactive)	
CC(C)(C)CC(C)(C)c1cc2c(O)c(c1)Cc1cc(C(C)(C)CC(C)(C)C)cc(c1O)Cc1cc(C(C)(C)CC(C)(C)C)cc(c1O)Cc1cc(C(C)(C)CC(C)(C)C)cc(c1O)C2	> 100 µM (inactive)		> 100 µM (inactive)	> 100 µM (inactive)	> 100 µM (inactive)	> 100 µM (inactive)	> 100 µM (inactive)	> 100 µM (inactive)	> 100 µM (inactive)
CCn1c2ccccc2c2ccc3c(c21)C(=O)c1ccccc1C3=O	> 100 µM (inactive)	> 100 µM (inactive)	> 100 µM (inactive)	> 100 µM (inactive)	> 100 µM (inactive)	24.2 µM (inactive)	> 100 µM (inactive)	> 100 µM (inactive)	
CCOC(=N)CC(=O)Nc1ccccc1	> 46.5 µM (inactive)	> 31.6 µM (inactive)	35.8 µM (inactive)	> 46.5 µM (inactive)	> 43.9 µM (inactive)	> 46.5 µM (inactive)	> 46.5 µM (inactive)	> 100 µM (inactive)	
CCOC(=O)C1C(=O)C(C(=O)OCC)C(c2ccccc2)N(C)C1c1ccccc1 (configuration not stated)	> 100 µM (inactive)		56 µM (inactive)	> 100 µM (inactive)		> 100 µM (inactive)	> 100 µM (inactive)	> 100 µM (inactive)	> 100 µM (inactive)
Nc1nc2c3nc(Nc4ccccc4)sc3nc(=O)n2c2sc(Nc3ccccc3)nc12	> 100 µM (inactive)	> 100 µM (inactive)		> 100 µM (inactive)	> 100 µM (inactive)	> 100 µM (inactive)	> 100 µM (inactive)	> 100 µM (inactive)	
N=C1N(c2ccccc2)C(=O)C23CCCC2C13N1CCOCC1 (configuration not stated)	> 100 µM (inactive)	> 100 µM (inactive)	> 100 µM (inactive)	> 100 µM (inactive)		> 100 µM (inactive)	> 100 µM (inactive)	> 100 µM (inactive)	> 100 µM (inactive)
CC(=O)OC1C/C(C)=C/CCC(C)/C=C/C2(C)CCC(C(C)(C)O)C12 (configuration not stated)	44.2 µM (inactive)	> 100 µM (inactive)	34.6 µM (inactive)	61.9 µM (inactive)	39.4 µM (inactive)	28.9 µM (inactive)	45.1 µM (inactive)	49.4 µM (inactive)	
NNC(=S)N/N=C(\CC1OC(=O)c2ccccc21)c1ccccc1O (configuration not stated)	50.9 µM (inactive)	94.4 µM (inactive)	58.1 µM (inactive)	33 µM (inactive)	34.2 µM (inactive)	20.7 µM (inactive)	44.6 µM (inactive)	92.5 µM (inactive)	26.5 µM (inactive)
O=C1C=Cc2c(-c3ccccc3)oc3cccc1c23	5.98 µM (inactive)	15 µM (inactive)	17.8 µM (inactive)	48.3 µM (inactive)	7.28 µM (inactive)	23 µM (inactive)	13.2 µM (inactive)	27.2 µM (inactive)	10.4 µM (inactive)
C1CCN(c2nc(=[N+]3CCCCC3)ss2)CC1	> 100 µM (inactive)	> 100 µM (inactive)	31.1 µM (inactive)	> 100 µM (inactive)	> 100 µM (inactive)	> 100 µM (inactive)	> 100 µM (inactive)	> 100 µM (inactive)	> 100 µM (inactive)
CC1(C)C(=O)CCC(=O)C(C)(C)C2=CC=C(O2)C(C)(C)C(=O)CCC(=O)C(C)(C)C2=CC=C1O2	> 100 µM (inactive)	> 100 µM (inactive)		> 100 µM (inactive)		> 100 µM (inactive)		> 100 µM (inactive)	
Cc1ccc(/C=C/C(=O)c2ccc(Cl)c(Cl)c2)cc1	> 100 µM (inactive)	63.1 µM (inactive)		> 100 µM (inactive)	> 100 µM (inactive)		> 100 µM (inactive)	> 100 µM (inactive)	> 100 µM (inactive)
O=C1CCNC(=O)NC1	> 100 µM (inactive)	> 100 µM (inactive)	> 100 µM (inactive)	> 100 µM (inactive)	> 100 µM (inactive)	> 100 µM (inactive)	> 100 µM (inactive)	> 100 µM (inactive)	> 100 µM (inactive)
O=C1C(=O)N(C(=O)c2ccc(Cl)c(Cl)c2)c2ccccc21	> 100 µM (inactive)	> 100 µM (inactive)	> 100 µM (inactive)	> 100 µM (inactive)		> 100 µM (inactive)	> 100 µM (inactive)		> 100 µM (inactive)
Clc1ccc(C2N3CCCCC3[C@@H]3c4[nH]c5ccccc5c4CCN23)cc1 (some centres not stated)	42.2 µM (inactive)	> 100 µM (inactive)	37.3 µM (inactive)	37.8 µM (inactive)	64.4 µM (inactive)	23.6 µM (inactive)	56.8 µM (inactive)	30.7 µM (inactive)	
Cc1ccccc1NC(=O)CC1C(=O)Nc2ccccc2[S+]1[O-] (configuration not stated)	> 100 µM (inactive)		> 100 µM (inactive)	> 100 µM (inactive)	96.6 µM (inactive)	> 100 µM (inactive)	> 100 µM (inactive)	> 100 µM (inactive)	93.8 µM (inactive)
COC(=O)[C@@H]1[C@H](O)[C@H](C)[C@H](O)[C@@](C)(O)/C=C\C=C(\C)C(=O)Nc2c(C)c(OC(C)=O)c3c(c2O)C(=O)C(C)=C2OCOC(=C23)/C(C)=C/[C@@](C)(O)[C@H](O)[C@@H](C)[C@H]1OC(C)=O	> 100 µM (inactive) and 60 µM (inactive)	30.6 µM (inactive)	33.2 µM (inactive) and 624 nM (active)	> 66.8 µM (inactive)		11.5 µM (inactive)	22.4 µM (inactive)	57.1 µM (inactive)	
COc1cc(/C=C/c2cccnc2)cc(OC)c1OC	> 100 µM (inactive)	53.1 µM (inactive)	> 100 µM (inactive)	> 100 µM (inactive)	> 100 µM (inactive)	> 100 µM (inactive)	> 100 µM (inactive)	> 100 µM (inactive)	
CN(C)CCNc1nc(-c2cccs2)cc(-c2cccs2)n1	10.8 µM (inactive)	< 0.01 µM (active)	8.73 µM (inactive)	16.9 µM (inactive)	3.39 µM (inactive)		22.5 µM (inactive)		

From ChEMBL document CHEMBL1201862, “PubChem BioAssay data set” (2004)
